Experimental data reported in patent EP0091090A2, “Bipyridine substituted imidazolidene copper complex and its use in food-producing animals, and bipyridine, 2,2'-(2-imidazolidinylidene) di-copper complex and use in animals” (INTERNATIONAL MINERALS & CHEMICAL CORPORATION, priority 1982, dated 1983).

Experiments:
rumen microflora = experiment: Batch culture assay for the degradation of starch (Example 3); type: cell-based, steers
Source text: The subject Formula ^IV compound was also compared to monensin in another rumen fluid batch culture test as set forth below. The test was designed to screen compounds for inhibition of starch breakdown by the rumen microflora. […] It is considered more desirable to avoid degradation of starch in the rumen so that it is passed on into the abomasum where it can be digested more efficiently. […] Test Procedure: Animals - Mature fistulated steers were maintained on concentrate, roughage, or concentrate/ roughage (50/50) rations. Animals were fed twice daily at 8:00 A.M. and 4:00 P.M.
Culture Assays - Approximately two liters of rumen fluid were collected from fistulated animals with the use of a hand pump. The rumen fluid, collected in a stoppered flask, was then immediately taken to the laboratory for processing. Samples were taken at 8:00 A.M. just prior to the first feeding or at 1:00 P.M. (ca. 4-5 hours after the first feeding). Rumen fluid was strained through six layers of cotton gauze cloth into a flask that was flushed with C02 gas. The filtrate was centrifuged for 5 minutes at 100 rpm in a Sorvall centrifuge to remove large particulate material. The supernatant was again passed through six layers of gauze into a flask under C02 gas and stoppered.
Batch Culture Assay for the Degradation of Starch - Twenty-five ml of rumen fluid prepared as above was added to serum vials (Wheaton Glass, 100 ml capacity) containing 0.25-1.00% final concentration starch as an energy substrate in 25 ml batch culture assay buffer. The serum vials were sealed under C02 gas phase, and incubations were carried out for 20-24 hours at 39°C on a New Brunswick rotary shaker (250 rpm). Each experimental vial was done in triplicate. The corn starch used in degradation experiments was previously washed with distilled water several times, filtered through an 8 micron (47 mm) Millipore filter, and dried at 90°C for 24 hours.
At intervals of 0 and 24 hours, the entire contents in vials were centrifuged at 250 rpm for 5 minutes. The supernatants were carefully removed with a pipet and the remaining "starch pellets" resuspended in water and passed through borosilicate glass microfiber prefilters (Millipore AP 20-047-00). Filters were dried in an oven for 24 hours at 90°C, cooled and then weighed. The amount of starch remaining after 24 hours' incubation was compared with the amount present at 0 hours and the per cent of substrate degraded calculated.

[1] = Methane production in growing lambs, respiration calorimetry (Example 4); type: in vivo; settings: 75 ppm in diet, 3 days treated feed, versus negative control
Source text: Animal Test: The object of this test is to determine the effect of the test compound on methane production in growing animals (ruminants). A decrease in methane production is an indication of increased utilization of the animals' feed supply, and possibly an indication of the effectiveness of the compound as a growth promoter.
Test Procedure: The test animals are housed in special respiration calorimetry facilities during the tests so that all metabolic gases can be collected and measured.
Twelve wether lambs, weighing between 20 and 25 kg, were selected from a group of lambs purchased from the California Livestock Marketing Association. The animals were processed according to standard procedures after arrival, and they were ear tagged for identification purposes and weighed prior to being moved to the respiration calorimetry facility.
Experimental Design - The animals were fed 500 grams of a 30% concentrate diet (Table 4) twice daily.
The Formula IV compound was tested in three animals at a level of 75 ppm. The test period was one week. […] Methane production was monitored during this time. […]
Sample Collection and Analysis - Since only the gas data on methane was of interest, urine and feces were collected daily and discarded. […] These samples were analyzed by gas chromatography to get a qualitative measure of […] production. […]

2,2'-(4,5-diphenyl-2H-imidazol-2-ylidene)bispyridine with CuCl2(1/1) [Formula IV Compound]
starch degraded (rumen microflora; 50 ppm, relative to unincubated control rumen fluid batch culture): 28.7%
per cent starch degraded (rumen microflora; 75 ppm, relative to unincubated control): 13.9%
methane production [1]: significant decrease
